How the values were obtained:
Format in all cases: ADME, organism-based
Design in all cases: dose 10 mg/kg, route intravenous
[1] = Clearance in CD1 mouse at 10 mg/kg, iv bid; settings: in vivo
[2] = Half life in CD1 mouse at 10 mg/kg, iv bid; settings: in vivo
[3] = Cmax in CD1 mouse at 10 mg/kg, iv bid; settings: in vivo
[4] = AUC in CD1 mouse at 10 mg/kg, iv bid; settings: plasma
[5] = Volume of distribution in CD1 mouse at 10 mg/kg, iv bid; settings: in vivo

clearance [1]: 50 mL/min/kg
half-life [2]: 7 h
Cmax [3]: 9 µM
AUC [4]: 9 µM·h
Vd [5]: 16 L/kg
SMILES: O=C(Nc1n[nH]c2cc(C(=O)N[C@H](CN3CCCC3)c3ccccc3)sc12)c1ccc(N2CCOCC2)cc1

Reference: ChEMBL document CHEMBL1255180, “Thieno[3,2-c]pyrazoles: a novel class of Aurora inhibitors with favorable antitumor activity” (Bioorg Med Chem, 2010)
